System: HSSY-II complex spheroid growth, percent test/control
Experiment: Anticancer human tumor HSSY-II cell line growth inhibition [Asc];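 note: spheroids exposed to drug for 7 days before reading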
Details: for IC50: curve of first compound; for viability, T/C: stronger effect = lower value
In short: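 Tumor cells were grown as multicellular spheroids with stromal HUVEC and mesenchymal stem cells and treated singly or in combination. Concentrations fell in half-log steps from the clinical Cmax, or from 10 microM where none was known.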

[1] = second compound 0.03 µM, first compound 0.0316 µM
[2] = second compound 0.03 µM, first compound 0.1 µM
[3] = second compound 0.03 µM, first compound 0.316 µM
[4] = second compound 0.03 µM, first compound 1 µM
[5] = second compound 0.0949 µM, first compound 0.0316 µM
[6] = second compound 0.0949 µM, first compound 0.1 µM
[7] = second compound 0.0949 µM, first compound 0.316 µM
[8] = second compound 0.0949 µM, first compound 1 µM
[9] = second compound 0.3 µM, first compound 0.0316 µM
[10] = second compound 0.3 µM, first compound 0.1 µM
[11] = second compound 0.3 µM, first compound 0.316 µM
[12] = second compound 0.3 µM, first compound 1 µM
[13] = second compound 0.949 µM, first compound 0.0316 µM
[14] = second compound 0.949 µM, first compound 0.1 µM
[15] = second compound 0.949 µM, first compound 0.316 µM
[16] = second compound 0.949 µM, first compound 1 µM
[17] = second compound 3 µM, first compound 0.0316 µM
[18] = second compound 3 µM, first compound 0.1 µM
[19] = second compound 3 µM, first compound 0.316 µM
[20] = second compound 3 µM, first compound 1 µM

| IC50 (second compound 0.03 µM) [nM] | IC50 (second compound 0.0949 µM) [nM] | IC50 (second compound 0.3 µM) [nM] | IC50 (second compound 0.949 µM) [nM] | IC50 (second compound 3 µM) [nM] | SMILES | viability, T/C [1] [%] | viability, T/C [2] [%] | viability, T/C [3] [%] | viability, T/C [4] [%] | viability, T/C [5] [%] | viability, T/C [6] [%] | viability, T/C [7] [%] | viability, T/C [8] [%] | viability, T/C [9] [%] | viability, T/C [10] [%] | viability, T/C [11] [%] | viability, T/C [12] [%] | viability, T/C [13] [%] | viability, T/C [14] [%] | viability, T/C [15] [%] | also measured |
| --- | --- | --- | --- | --- | --- | --- | --- | --- | --- | --- | --- | --- | --- | --- | --- | --- | --- | --- | --- | --- | --- |
| 5960 | 3250 | < 31.6 | < 31.6 | < 31.6 | C#Cc1c(F)ccc2cc(O)cc(-c3ncc4c(N5CC6CCC(C5)N6)nc(OCC56CCCN5CC(F)C6)nc4c3F)c12 (stereo not given) + CCN1C(C(=O)NC23CCC(C(=O)O)(CC2)CC3)C(c2cccc(Cl)c2F)C2(C(=O)Nc3cc(Cl)ccc32)C12CCCCC2 | 91.6 | 96.6 | 91.1 | 90.7 | 52.4 | 62.3 | 65.7 | 59 | 24.8 | 27.5 | 26 | 20.6 | 7.03 | 7.37 | 6.79 | viability, T/C (second compound 0.03 µM, first compound 3.16 µM): 80.8%; viability, T/C (second compound 0.03 µM, first compound 10 µM): 24.9%; viability, T/C (second compound 0.0949 µM, first compound 3.16 µM): 50.6%; viability, T/C (second compound 0.0949 µM, first compound 10 µM): 9.38%; viability, T/C (second compound 0.3 µM, first compound 3.16 µM): 20.2%; viability, T/C (second compound 0.3 µM, first compound 10 µM): 0.94%; viability, T/C [16]: 5.65%; viability, T/C (second compound 0.949 µM, first compound 3.16 µM): 5.67%; viability, T/C (second compound 0.949 µM, first compound 10 µM): 0.22%; viability, T/C [17]: 2.13%; viability, T/C [18]: 2.33%; viability, T/C [19]: 2.2%; viability, T/C [20]: 1.74%; viability, T/C (second compound 3 µM, first compound 3.16 µM): 1.34%; viability, T/C (second compound 3 µM, first compound 10 µM): 0.27% |
| > 1000 | 3.28 | < 3.16 | < 3.16 | < 3.16 | CNC(C)C(=O)NC1CN(S(=O)(=O)c2cccc(S(=O)(=O)N3CCC4CCC(C(=O)NC(c5ccccc5)c5ccccc5)N4C(=O)C(NC(=O)C(C)NC)C3)c2)CCC2CCC(C(=O)NC(c3ccccc3)c3ccccc3)N2C1=O (stereo not given) + CCN1C(C(=O)NC23CCC(C(=O)O)(CC2)CC3)C(c2cccc(Cl)c2F)C2(C(=O)Nc3cc(Cl)ccc32)C12CCCCC2 | 65.6 | 69.1 | 66.8 | 63.1 | 36.8 | 39.5 | 39.1 | 37.5 | 13.3 | 11 | 14.3 | 11.2 | 1.39 | 1.14 | 0.75 | viability, T/C (second compound 0.03 µM, first compound 0.00316 µM): 76.3%; viability, T/C (second compound 0.03 µM, first compound 0.01 µM): 81.6%; viability, T/C (second compound 0.0949 µM, first compound 0.00316 µM): 49.2%; viability, T/C (second compound 0.0949 µM, first compound 0.01 µM): 48.4%; viability, T/C (second compound 0.3 µM, first compound 0.00316 µM): 13.5%; viability, T/C (second compound 0.3 µM, first compound 0.01 µM): 13.5%; viability, T/C (second compound 0.949 µM, first compound 0.00316 µM): 2.72%; viability, T/C (second compound 0.949 µM, first compound 0.01 µM): 1.74%; viability, T/C [16]: 1.15%; viability, T/C (second compound 3 µM, first compound 0.00316 µM): 0.64%; viability, T/C (second compound 3 µM, first compound 0.01 µM): 0.51%; viability, T/C [17]: 0.48%; viability, T/C [18]: 0.47%; viability, T/C [19]: 0.62%; viability, T/C [20]: 0.46% |
